Measurements published in ChEMBL document CHEMBL1135542, “Successful virtual screening for novel inhibitors of human carbonic anhydrase: strategy and experimental confirmation” (J Med Chem, 2002).
pIC50, pKd, pKi: −log10 of the molar value.

Assays:
Carbonic anhydrase 2 [1] = target: T1, Carbonic anhydrase 2 (Homo sapiens, UniProt P00918)
Carbonic anhydrase 2 [2] = target: T1, Carbonic anhydrase 2; remark: listed apart in the source
Carbonic anhydrase 2 [3] = target: T1, Carbonic anhydrase 2; remark: listed apart in the source

SMILES | pKd (Carbonic anhydrase 2 [3]) | pIC50 (Carbonic anhydrase 2 [1]) | pKi (Carbonic anhydrase 2 [2])
CN(C)Cc1cc(S(=O)(=O)c2ccc(S(N)(=O)=O)s2)ccc1O | – | 9.15 | –
NS(=O)(=O)c1cc2cc(N3CCOCC3)sc2s1 | – | 8.52 | 8.96
N[C@@H](Cc1ccccc1)C(=O)NCCOCCOCCNC(=O)c1ccc(S(N)(=O)=O)cc1 [PHENYLALANYLAMINODI(ETHYLOXY)ETHYL BENZENESULFONAMIDEAMINOCARBONYLBENZENESULFONAMIDE] | 7.85 | – | –
NS(=O)(=O)OCCOc1ccc(-n2ccnc2)cc1 | – | – | 8.15
CC(C)(C)C(=O)Oc1ccc2sc(S(N)(=O)=O)cc2c1 | – | 8.59 | –
CC1(C)O[C@H]2[C@@H]3OS(=O)(=O)O[C@@H]3CC[C@@]2(COS(N)(=O)=O)O1 | – | 6.89 | –
NS(=O)(=O)c1cc2cc(N3CCSCC3)sc2s1 | – | 8.59 | 9.36
CN(C)S(=O)(=O)Oc1ccc2nc(S(N)(=O)=O)sc2c1 | – | 8.92 | –
CCCCCCCCCS(=O)(=O)C(F)S(N)(=O)=O (configuration not stated) | – | 8.52 | –
COCCOCCN(CCOC)c1cc2cc(S(N)(=O)=O)sc2s1 | – | 8.55 | 8.80

Second part, led by results:

pKd (Carbonic anhydrase 2 [3]) | SMILES | pIC50 (Carbonic anhydrase 2 [1]) | pKi (Carbonic anhydrase 2 [2])
9.89 | CCN[C@H]1CN(CCCCOC)S(=O)(=O)c2sc(S(N)(=O)=O)cc21 | 8.49 | –
7.37 | NC(=O)NCCOCCOCCNC(=O)c1ccc(S(N)(=O)=O)cc1 | – | –
4.03 | CN(C)c1cccc2c(S(N)(=O)=O)cccc12 | – | –
